Results taken from paper PMC7066191, “Exploiting loss of heterozygosity for allele-selective colorectal cancer chemotherapy” (Nature Communications, 2020).

Legend:
Test in all cases: biochemical
Set-up in all cases: scanMAX competition binding; kinase recovered on immobilized ligand quantified by qPCR, per cent of control
Details in all cases: read-out: APA (POC)
CLK1 = CLK1 (Homo sapiens, UniProt P49759)
Protocol: (§1) The binding affinities of APA and NAPA were evaluated in the scanMAX^sm Kinase Assay Panel (DiscoverX) at a final concentration of 10 µM. The compounds were tested for steric or allosteric binding to kinases in solution. The kinase was captured from the solution through an immobilized kinase-specific ligand and the kinase recovery was quantified. The amount of recovered kinase in the presence or absence of APA or NAPA was measured by quantitative PCR compared with the kinase capture in absence of the compound. Any compound reducing the binding affinity of a kinase to the respective immobilized ligand was scored as a potential hit, and the binding affinity of the compound toward a kinase is interpreted as the difference between the kinase recovery in the absence and presence of the compound. The inhibitory binding constants (Kd) of APA and NAPA to AURKA were evaluated in a KdELECT Kinase Assay (DiscoverX). […] Data acquisition followed the same methodology as for the scanMAX^sm Kinase Assay Panel. 6 Supplementary Figure 4. Kinome inhibition profiles of APA and its NAT2 metabolite NAPA identifies preferential APA kinase targets and differential binding to AURKA a The human kinome was assessed for binding affinity to APA and NAPA at 10 µM concentration (468 kinases in the scanMAX Kinase Assay Panel, DiscoverX). The family stratification of kinases is shown as a cladogram. Circles visualize the binding affinity of NAPA and APA towards each kinase with a higher intensity of blue corresponding to a higher binding affinity. […] One single data point from one experiment at a concentration 18.5 µM of APA was excluded as an outlier. c Thermal shift assay for human recombinant AURKA in the presence of APA and the selective inhibitor S1451. Melting temperatures were obtained by calculating the first derivative of the tryptophan fluorescence ratio at 350 nm and 330 nm and are shown for AURKA in the presence of S1451 (blue) and APA (yellow). Structural similarities between APA and kinase inhibitors[27] prompted investigation of protein kinases as mediators of APA toxicity. […] To enrich for kinase interactions that could explain the preferential killing of slow NAT2 cells, we compared the binding affinity of each kinase with APA and NAPA, selected 44 targets with preferential binding to APA and excluded kinases non-essential for cell survival and those not expressed in CRC cells (Supplementary Fig. 4A, Supplementary Table 4). […] The growth inhibition of RKO and DLD-1 following siRNA-mediated AURKA knockdown (Figs. 3c, d) reflected the relative efficiency of protein downregulation (Supplementary Fig. 5C, D). […] (Supplementary Fig. 4C). AURKA regulates cell cycle progression through association with other centrosome and spindle-associated proteins. Its activation requires auto-phosphorylation at Thr288 and ensures spindle pole integrity, centrosome duplication as well as adequate chromosomal alignment and segregation, while its inhibition leads to multipolar spindles with acentrosomal poles[28],[31]. […] S1451 reduced the fraction of pAURKA levels by >90% regardless of NAT2 expression (Fig. 3f and Su

AURKA = AURKA (Homo sapiens, UniProt O14965)
Protocol: as §1

FLT1 = FLT1 (Homo sapiens, UniProt P17948)
FLT1, sequence (P17948 whole entry): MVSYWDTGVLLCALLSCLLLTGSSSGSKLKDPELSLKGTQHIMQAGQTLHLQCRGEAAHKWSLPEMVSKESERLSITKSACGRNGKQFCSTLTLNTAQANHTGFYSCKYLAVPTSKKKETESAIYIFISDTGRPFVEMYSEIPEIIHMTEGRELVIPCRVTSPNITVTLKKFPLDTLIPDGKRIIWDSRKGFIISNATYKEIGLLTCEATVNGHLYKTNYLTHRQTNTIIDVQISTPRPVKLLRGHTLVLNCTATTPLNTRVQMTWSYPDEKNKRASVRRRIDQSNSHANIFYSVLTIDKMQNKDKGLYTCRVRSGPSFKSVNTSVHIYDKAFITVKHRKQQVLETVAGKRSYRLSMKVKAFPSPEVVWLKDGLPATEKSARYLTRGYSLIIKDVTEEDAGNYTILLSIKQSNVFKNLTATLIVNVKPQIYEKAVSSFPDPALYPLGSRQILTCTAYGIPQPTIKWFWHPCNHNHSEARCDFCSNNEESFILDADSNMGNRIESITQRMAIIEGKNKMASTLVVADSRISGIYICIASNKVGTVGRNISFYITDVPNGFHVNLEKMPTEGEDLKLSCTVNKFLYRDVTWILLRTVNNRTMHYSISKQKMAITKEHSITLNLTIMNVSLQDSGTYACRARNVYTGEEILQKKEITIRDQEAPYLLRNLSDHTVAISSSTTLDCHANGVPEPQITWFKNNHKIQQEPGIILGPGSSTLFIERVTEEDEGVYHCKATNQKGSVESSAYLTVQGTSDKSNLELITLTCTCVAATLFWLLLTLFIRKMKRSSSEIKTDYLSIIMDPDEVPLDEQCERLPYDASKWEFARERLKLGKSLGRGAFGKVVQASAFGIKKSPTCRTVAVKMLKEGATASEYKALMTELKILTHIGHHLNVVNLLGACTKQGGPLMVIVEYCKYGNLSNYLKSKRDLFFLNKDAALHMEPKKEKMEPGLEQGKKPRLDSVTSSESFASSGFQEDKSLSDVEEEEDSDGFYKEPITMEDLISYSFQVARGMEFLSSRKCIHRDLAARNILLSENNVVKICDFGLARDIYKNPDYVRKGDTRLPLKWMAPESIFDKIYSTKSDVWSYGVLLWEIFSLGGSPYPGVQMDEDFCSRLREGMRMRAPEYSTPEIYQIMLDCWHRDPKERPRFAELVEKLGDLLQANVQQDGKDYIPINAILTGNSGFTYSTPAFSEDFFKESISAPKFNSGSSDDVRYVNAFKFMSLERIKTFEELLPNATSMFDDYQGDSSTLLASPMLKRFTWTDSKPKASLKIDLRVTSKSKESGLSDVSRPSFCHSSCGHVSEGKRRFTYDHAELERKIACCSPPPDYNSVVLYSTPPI
Protocol: as §1

RET = RET (Homo sapiens, UniProt P07949)
Protocol: as §1

AAK1 = AAK1 (Homo sapiens, UniProt Q2M2I8)
AAK1, sequence (Q2M2I8 whole entry): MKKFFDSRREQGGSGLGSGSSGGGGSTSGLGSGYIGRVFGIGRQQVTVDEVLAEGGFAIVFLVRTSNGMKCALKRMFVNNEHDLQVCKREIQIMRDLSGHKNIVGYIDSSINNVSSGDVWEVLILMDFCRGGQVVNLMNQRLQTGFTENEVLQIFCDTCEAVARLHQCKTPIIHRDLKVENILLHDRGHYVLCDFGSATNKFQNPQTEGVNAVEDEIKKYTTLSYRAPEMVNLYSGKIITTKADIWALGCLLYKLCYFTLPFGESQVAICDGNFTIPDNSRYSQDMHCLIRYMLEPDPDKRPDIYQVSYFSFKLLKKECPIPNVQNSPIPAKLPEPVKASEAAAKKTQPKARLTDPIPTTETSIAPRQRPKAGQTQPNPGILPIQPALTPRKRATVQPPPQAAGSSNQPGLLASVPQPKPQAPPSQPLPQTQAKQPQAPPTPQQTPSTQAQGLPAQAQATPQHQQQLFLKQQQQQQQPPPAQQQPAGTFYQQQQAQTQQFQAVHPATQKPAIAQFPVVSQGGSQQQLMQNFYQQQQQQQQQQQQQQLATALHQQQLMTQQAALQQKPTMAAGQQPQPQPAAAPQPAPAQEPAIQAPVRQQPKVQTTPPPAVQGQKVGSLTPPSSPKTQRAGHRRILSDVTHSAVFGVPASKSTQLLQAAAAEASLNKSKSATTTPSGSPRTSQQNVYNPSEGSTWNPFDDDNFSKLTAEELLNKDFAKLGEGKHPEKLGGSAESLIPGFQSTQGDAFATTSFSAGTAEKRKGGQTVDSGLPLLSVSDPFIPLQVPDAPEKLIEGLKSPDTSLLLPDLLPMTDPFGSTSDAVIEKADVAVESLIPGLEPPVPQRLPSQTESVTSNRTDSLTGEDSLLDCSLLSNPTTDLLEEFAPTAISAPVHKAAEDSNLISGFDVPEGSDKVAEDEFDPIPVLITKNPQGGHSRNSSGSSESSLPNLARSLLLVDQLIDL
Protocol: as §1

ZAK = target: T1, ZAK (Homo sapiens, UniProt Q9NYL2)
T1 construct: gene MAP3K20
Protocol: as §1

IRAK3 = IRAK3 (Homo sapiens, UniProt Q9Y616)
IRAK3, sequence (Q9Y616 whole entry): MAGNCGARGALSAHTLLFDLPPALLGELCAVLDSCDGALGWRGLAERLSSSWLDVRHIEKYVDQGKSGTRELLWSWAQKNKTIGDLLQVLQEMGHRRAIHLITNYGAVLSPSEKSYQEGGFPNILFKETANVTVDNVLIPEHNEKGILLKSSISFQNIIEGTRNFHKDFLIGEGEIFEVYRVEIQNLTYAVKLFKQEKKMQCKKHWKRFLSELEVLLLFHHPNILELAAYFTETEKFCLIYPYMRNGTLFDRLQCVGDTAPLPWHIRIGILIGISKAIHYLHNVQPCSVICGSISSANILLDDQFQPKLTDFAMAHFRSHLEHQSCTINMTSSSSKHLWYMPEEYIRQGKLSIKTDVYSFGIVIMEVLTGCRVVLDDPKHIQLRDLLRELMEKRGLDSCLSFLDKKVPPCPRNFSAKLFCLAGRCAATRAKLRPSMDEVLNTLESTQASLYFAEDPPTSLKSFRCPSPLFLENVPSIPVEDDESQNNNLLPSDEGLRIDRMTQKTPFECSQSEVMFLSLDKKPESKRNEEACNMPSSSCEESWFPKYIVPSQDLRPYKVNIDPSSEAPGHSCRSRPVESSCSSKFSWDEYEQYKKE
Protocol: as §1

HIPK4 = HIPK4 (Homo sapiens, UniProt Q8NE63)
HIPK4, sequence (Q8NE63 whole entry): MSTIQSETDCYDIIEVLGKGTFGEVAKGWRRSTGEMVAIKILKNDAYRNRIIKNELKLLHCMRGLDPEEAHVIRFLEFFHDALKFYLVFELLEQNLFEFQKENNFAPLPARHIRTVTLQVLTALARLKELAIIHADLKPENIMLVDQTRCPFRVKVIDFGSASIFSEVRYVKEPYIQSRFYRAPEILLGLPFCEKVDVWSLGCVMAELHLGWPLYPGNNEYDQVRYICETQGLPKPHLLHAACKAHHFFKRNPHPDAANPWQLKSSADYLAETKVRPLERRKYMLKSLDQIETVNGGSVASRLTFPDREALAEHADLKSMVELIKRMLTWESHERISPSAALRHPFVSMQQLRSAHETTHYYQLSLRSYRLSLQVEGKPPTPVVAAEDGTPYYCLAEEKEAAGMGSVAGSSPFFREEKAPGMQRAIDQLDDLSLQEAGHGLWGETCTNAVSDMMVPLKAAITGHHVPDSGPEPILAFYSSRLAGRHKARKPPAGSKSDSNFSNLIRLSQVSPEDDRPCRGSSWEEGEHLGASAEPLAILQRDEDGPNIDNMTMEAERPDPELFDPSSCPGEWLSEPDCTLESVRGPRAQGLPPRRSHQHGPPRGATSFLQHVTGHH
Protocol: as §1

CAMK2A = CAMK2A (Homo sapiens, UniProt Q9UQM7)
CAMK2A, sequence (Q9UQM7 whole entry): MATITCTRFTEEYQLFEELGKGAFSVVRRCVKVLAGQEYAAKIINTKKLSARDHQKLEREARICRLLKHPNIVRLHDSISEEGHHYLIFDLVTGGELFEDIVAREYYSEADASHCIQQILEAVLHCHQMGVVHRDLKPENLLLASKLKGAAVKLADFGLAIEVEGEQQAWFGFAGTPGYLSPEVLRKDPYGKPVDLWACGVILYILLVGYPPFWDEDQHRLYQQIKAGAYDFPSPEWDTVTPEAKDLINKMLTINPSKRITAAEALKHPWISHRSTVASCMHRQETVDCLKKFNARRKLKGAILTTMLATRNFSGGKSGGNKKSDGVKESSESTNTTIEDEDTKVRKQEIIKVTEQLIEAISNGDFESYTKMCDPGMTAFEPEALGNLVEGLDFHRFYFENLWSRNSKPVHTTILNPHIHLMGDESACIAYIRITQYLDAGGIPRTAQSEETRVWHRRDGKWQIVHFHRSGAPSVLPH
Protocol: as §1

NEK10 = NEK10 (Homo sapiens, UniProt Q6ZWH5)
Protocol: as §1

MAP3K9 = MAP3K9 (Homo sapiens, UniProt P80192)
MAP3K9, sequence (P80192 whole entry): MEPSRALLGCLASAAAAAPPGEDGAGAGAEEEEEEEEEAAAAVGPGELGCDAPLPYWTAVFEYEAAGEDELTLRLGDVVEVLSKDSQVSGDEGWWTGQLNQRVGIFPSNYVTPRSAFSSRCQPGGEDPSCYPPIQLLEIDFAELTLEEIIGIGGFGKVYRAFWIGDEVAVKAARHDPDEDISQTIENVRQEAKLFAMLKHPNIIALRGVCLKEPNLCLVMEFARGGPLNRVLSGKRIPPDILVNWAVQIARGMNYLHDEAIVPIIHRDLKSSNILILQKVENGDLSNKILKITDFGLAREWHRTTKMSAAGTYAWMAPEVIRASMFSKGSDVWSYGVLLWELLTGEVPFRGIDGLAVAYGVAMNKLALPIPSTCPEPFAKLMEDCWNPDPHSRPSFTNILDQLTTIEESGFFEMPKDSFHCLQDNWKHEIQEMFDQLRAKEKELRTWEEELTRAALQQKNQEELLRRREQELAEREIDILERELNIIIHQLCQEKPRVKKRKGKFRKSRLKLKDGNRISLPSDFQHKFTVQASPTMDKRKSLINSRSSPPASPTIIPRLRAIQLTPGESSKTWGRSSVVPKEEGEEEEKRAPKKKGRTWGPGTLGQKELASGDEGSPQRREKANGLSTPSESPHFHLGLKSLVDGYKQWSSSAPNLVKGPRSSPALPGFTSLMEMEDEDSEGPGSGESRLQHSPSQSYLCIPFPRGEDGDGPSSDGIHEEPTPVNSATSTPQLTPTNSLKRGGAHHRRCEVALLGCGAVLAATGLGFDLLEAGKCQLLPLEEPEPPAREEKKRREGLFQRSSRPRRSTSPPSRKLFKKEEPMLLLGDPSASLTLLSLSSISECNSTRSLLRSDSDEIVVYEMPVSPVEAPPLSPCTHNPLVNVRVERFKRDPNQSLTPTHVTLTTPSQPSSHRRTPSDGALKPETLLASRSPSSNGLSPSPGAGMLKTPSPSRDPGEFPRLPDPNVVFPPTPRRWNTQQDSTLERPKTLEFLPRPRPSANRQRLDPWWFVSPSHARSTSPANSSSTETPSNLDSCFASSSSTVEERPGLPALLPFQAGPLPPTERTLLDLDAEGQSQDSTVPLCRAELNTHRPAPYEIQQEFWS
Protocol: as §1

MAST1 = MAST1 (Homo sapiens, UniProt Q9Y2H9)
Protocol: as §1

PDGFRA = PDGFRA (Homo sapiens, UniProt P16234)
Protocol: as §1

DYRK2 = DYRK2 (Homo sapiens, UniProt Q92630)
Protocol: as §1

Q: How did the remaining binding at 10 µM (CLK1) turn out when `COc1cc(Nc2cncc(-c3ccc(N)cc3)n2)cc(OC)c1OC` [APA, 6-(4-aminophenyl)-N-(3,4,5-trimethoxyphenyl)pyrazin-2-amine] was run?
A: The remaining binding at 10 µM was 25%.

Q: And the remaining binding at 10 µM (AURKA)?
A: The remaining binding at 10 µM was 53%.

Q: And the remaining binding at 10 µM (FLT1)?
A: Its remaining binding at 10 µM is 36%.

Q: What about the remaining binding at 10 µM (RET) of the same molecule?
A: The remaining binding at 10 µM was 24%.

Q: What about the remaining binding at 10 µM (AAK1) of the same molecule?
A: The remaining binding at 10 µM was 45%.

Q: And the remaining binding at 10 µM (ZAK)?
A: Its remaining binding at 10 µM is 22%.

Q: What about the remaining binding at 10 µM (IRAK3) of the same molecule?
A: The remaining binding at 10 µM was 46%.

Q: What about the remaining binding at 10 µM (HIPK4) of the same molecule?
A: The remaining binding at 10 µM was 10%.

Q: And the remaining binding at 10 µM (CAMK2A)?
A: Its remaining binding at 10 µM is 59%.

Q: And the remaining binding at 10 µM (NEK10)?
A: The remaining binding at 10 µM was 37%.

Q: And the remaining binding at 10 µM (MAP3K9)?
A: The remaining binding at 10 µM was 8.5%.

Q: And the remaining binding at 10 µM (MAST1)?
A: The remaining binding at 10 µM was 46%.

Q: And the remaining binding at 10 µM (PDGFRA)?
A: The remaining binding at 10 µM was 3.4%.

Q: And the remaining binding at 10 µM (DYRK2)?
A: The remaining binding at 10 µM was 63%.
